Publication PMC6409085, “Three odorant-binding proteins are involved in the behavioral response of Sogatella furcifera to rice plant volatiles” (PeerJ, 2019)
Several values for one entry are separate records, joined by “and”; a condition that tells them apart may be missing. Equal values may be shown once.

How the values were obtained:
[1] = biological target: SfurOBP1 (Sogatella furcifera, UniProt V5T8N5); experiment: Binding of 1-NPN to SfurOBP1 (fluorescence titration); settings: for Fluorescence intensity: OBP1, triplicate columns
Description: (§1) Fluorescence competitive binding assays were performed on Tecan Spark 10M (Tecan Group Ltd., Männedorf, Switzerland) with the F96 Black ELIAS Plate (Sangon) ([Khuhro et al., 2017]; [Liu et al., 2017]). The solutions were excited at 337 nm and emission spectra were recorded between 390 and 490 nm. First, to test the binding constants of 1-NPN to the SfurOBPs, a 2.0 µM solution of protein in 50 mM Tris-HCl (pH = 7.4) was titrated with 1 mM 1-NPN to achieve virous concentrations. Next, the competitive binding of each odorant was measured using the 1-NPN as fluorescent reporter and odorant as competitor. The concentrations of protein and 1-NPN were both 2.0 µM, the odorant added after protein and 1-NPN added into the well of ELIAS Plate for 2 min. The final concentrations of each competitor were 2, 4, 6, 8, 10, 12, 14, 16, 18 and 20 µM. After 2 min of odorant added, the fluorescence intensity was measured and recorded. The volume of mixed solution in each well was maintained at 250 µL. Each interaction was performed in triplicates.
(§2) GraphPad Prism 7.0 software (GraphPad Software, Inc., La Jolla, CA, USA) was used to calculated and generated the binding constants (K1−NPN) of 1-NPN to SfurOBPs and relative Scatchard plots ([Ban et al., 2003]; [Li et al., 2016]). Dissociation constant (Ki) of each odorant to SfurOBP was computed from the corresponding IC50 value (the half maximal inhibitory concentration), using the following equation: Ki=[IC50]/(1 + [1-NPN]/K1−NPN), where [1-NPN] is the free concentration of 1-NPN and K1−NPN is the dissociation constant of the complex protein/1-NPN.

[2] = biological target: SfurOBP2 (Sogatella furcifera, UniProt V5T759); experiment: Binding of 1-NPN to SfurOBP2 (fluorescence titration); settings: for Fluorescence intensity: OBP2, triplicate columns
Description: as §1, §2

[3] = biological target: SfurOBP3 (Sogatella furcifera, UniProt V5T818); experiment: Binding of 1-NPN to SfurOBP3 (fluorescence titration); settings: for Fluorescence intensity: OBP3, triplicate columns
Description: as §1, §2

[4] = biological target: SfurOBP11 (Sogatella furcifera, UniProt V5T6E3); experiment: Binding of 1-NPN to SfurOBP11 (fluorescence titration); settings: for Fluorescence intensity: OBP11, triplicate columns
Description: as §1, §2

Chain of SfurOBP3 (V5T818 entry or part of it): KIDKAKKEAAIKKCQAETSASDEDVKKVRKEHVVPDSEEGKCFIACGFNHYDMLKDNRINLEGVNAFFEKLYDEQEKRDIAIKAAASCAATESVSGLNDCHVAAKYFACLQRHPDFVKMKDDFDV
Chain of SfurOBP1 (V5T8N5 entry or part of it): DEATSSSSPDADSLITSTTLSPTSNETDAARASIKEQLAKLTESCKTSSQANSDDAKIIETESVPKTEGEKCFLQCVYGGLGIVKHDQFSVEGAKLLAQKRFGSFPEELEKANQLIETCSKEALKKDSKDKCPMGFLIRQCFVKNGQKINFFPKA
Chain of SfurOBP11 (V5T6E3 entry or part of it): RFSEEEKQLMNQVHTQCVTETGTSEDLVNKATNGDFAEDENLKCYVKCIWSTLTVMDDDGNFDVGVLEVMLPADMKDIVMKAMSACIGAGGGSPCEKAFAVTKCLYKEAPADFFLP
Chain of SfurOBP2 (V5T759 entry or part of it): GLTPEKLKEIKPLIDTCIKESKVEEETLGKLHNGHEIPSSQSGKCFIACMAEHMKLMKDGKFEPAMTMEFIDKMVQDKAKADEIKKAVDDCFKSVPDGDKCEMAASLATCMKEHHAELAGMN

c1ccc(Nc2cccc3ccccc23)cc1 [1-NPN, N-phenyl-1-naphthylamine]
Fluorescence intensity ([1]; 1-NPN 2 (unit not given)): 7934 and 7244 and 7558
Fluorescence intensity ([1]; 1-NPN 4 (unit not given)): 14870 and 13520 and 13256
Fluorescence intensity ([1]; 1-NPN 6 (unit not given)): 19450 and 20173 and 19826
Fluorescence intensity ([1]; 1-NPN 8 (unit not given)): 25948 and 27851 and 26112
Fluorescence intensity ([1]; 1-NPN 10 (unit not given)): 30874 and 31162 and 28910
Fluorescence intensity ([1]; 1-NPN 12 (unit not given)): 33259 and 35914 and 35970
Fluorescence intensity ([1]; 1-NPN 14 (unit not given)): 37528 and 37617 and 40532
Fluorescence intensity ([1]; 1-NPN 16 (unit not given)): 43674 and 43309 and 43505
Fluorescence intensity ([1]; 1-NPN 18 (unit not given)): 50472 and 51665 and 48009
Fluorescence intensity ([1]; 1-NPN 20 (unit not given)): 53471 and 53438 and 53794
Fluorescence intensity ([1]; 1-NPN 22 (unit not given)): 54404 and 53461 and 54332
Fluorescence intensity ([1]; 1-NPN 24 (unit not given)): 55616 and 55933 and 55336
Fluorescence intensity ([1]; 1-NPN 26 (unit not given)): 55005 and 58722 and 54776
Fluorescence intensity ([1]; 1-NPN 28 (unit not given)): 60087 and 56565 and 53471
Fluorescence intensity ([1]; 1-NPN 30 (unit not given)): 59000 and 55051 and 51066
Kd ([1]; SfurOBP1, 2.0 µM protein, 50 mM Tris-HCl pH 7.4, read-out: dissociation constant of 1-NPN): 24.2 µM
Fluorescence intensity ([2]; 1-NPN 2 (unit not given)): 23662 and 22289 and 22010
Fluorescence intensity ([2]; 1-NPN 4 (unit not given)): 39603 and 44704 and 31870
Fluorescence intensity ([2]; 1-NPN 6 (unit not given)): 50431 and 46158 and 47197
Fluorescence intensity ([2]; 1-NPN 8 (unit not given)): 61337 and 63137 and 57001
Fluorescence intensity ([2]; 1-NPN 10 (unit not given)): 59819 and 73730 and 69974
Fluorescence intensity ([2]; 1-NPN 14 (unit not given)): 64863 and 65896 and 57584
Fluorescence intensity ([2]; 1-NPN 16 (unit not given)): 70787 and 76872 and 65200
Fluorescence intensity ([2]; 1-NPN 18 (unit not given)): 75833 and 70878 and 75400
Fluorescence intensity ([2]; 1-NPN 20 (unit not given)): 67482 and 73624 and 78268
Fluorescence intensity ([2]; 1-NPN 22 (unit not given)): 76334 and 74639 and 64277
Kd ([2]; SfurOBP2, 2.0 µM protein, 50 mM Tris-HCl pH 7.4, read-out: dissociation constant of 1-NPN): 5.67 µM
Fluorescence intensity ([3]; 1-NPN 2 (unit not given)): 61430 and 58985 and 59650
Fluorescence intensity ([3]; 1-NPN 4 (unit not given)): 77503 and 80113 and 80262
Fluorescence intensity ([3]; 1-NPN 6 (unit not given)): 85325 and 83919 and 82776
Fluorescence intensity ([3]; 1-NPN 8 (unit not given)): 97386 and 97137 and 85039
Fluorescence intensity ([3]; 1-NPN 10 (unit not given)): 98049 and 103605 and 94167
Fluorescence intensity ([3]; 1-NPN 12 (unit not given)): 100936 and 110967 and 98958
Fluorescence intensity ([3]; 1-NPN 14 (unit not given)): 99019 and 113580 and 103187
Fluorescence intensity ([3]; 1-NPN 16 (unit not given)): 114929 and 113428 and 104178
Fluorescence intensity ([3]; 1-NPN 18 (unit not given)): 121020 and 111471 and 116920
Fluorescence intensity ([3]; 1-NPN 20 (unit not given)): 114200 and 113028 and 114937
Fluorescence intensity ([3]; 1-NPN 22 (unit not given)): 115221 and 112203 and 110696
Fluorescence intensity ([3]; 1-NPN 24 (unit not given)): 120756 and 110811 and 112155
Fluorescence intensity ([3]; 1-NPN 26 (unit not given)): 117527 and 109823 and 115694
Fluorescence intensity ([3]; 1-NPN 28 (unit not given)): 107913 and 111968 and 118918
Fluorescence intensity ([3]; 1-NPN 30 (unit not given)): 110746 and 113690 and 116658
Kd ([3]; SfurOBP3, 2.0 µM protein, 50 mM Tris-HCl pH 7.4, read-out: dissociation constant of 1-NPN): 2.42 µM
Fluorescence intensity ([4]; 1-NPN 2 (unit not given)): 34926 and 31369 and 32128
Fluorescence intensity ([4]; 1-NPN 4 (unit not given)): 46136 and 60649 and 53421
Fluorescence intensity ([4]; 1-NPN 6 (unit not given)): 59058 and 63562 and 67479
Fluorescence intensity ([4]; 1-NPN 8 (unit not given)): 73431 and 79398 and 77472
Fluorescence intensity ([4]; 1-NPN 10 (unit not given)): 83685 and 83190 and 84209
Fluorescence intensity ([4]; 1-NPN 12 (unit not given)): 87527 and 87829 and 87441
Fluorescence intensity ([4]; 1-NPN 14 (unit not given)): 113208 and 119321 and 82397
Fluorescence intensity ([4]; 1-NPN 16 (unit not given)): 121541 and 129453 and 101542
Fluorescence intensity ([4]; 1-NPN 18 (unit not given)): 129684 and 132053 and 101150
Fluorescence intensity ([4]; 1-NPN 20 (unit not given)): 142842 and 126669 and 108121
Fluorescence intensity ([4]; 1-NPN 22 (unit not given)): 118001 and 129399 and 126785
Fluorescence intensity ([4]; 1-NPN 24 (unit not given)): 123359 and 122043 and 121686
Kd ([4]; SfurOBP11, 2.0 µM protein, 50 mM Tris-HCl pH 7.4, read-out: dissociation constant of 1-NPN): 10.4 µM
